Key:
[1] = test system: non induced human leukocytes; test: α-interferon production in non induced human leukocytes, ELISA of supernatant; assay type: cell-based; conditions: absence of a viral inducer
Experimental: Human leukocytes prepared from buffy coats and used in concentrations between 8 and 11 million cells per mL are incubated in a basal media (either EMEM or a modified EMEM) supplemented with 1.5 g/L of tricine and 4% (v/v) PEG precipitated plasma. The experiments are performed in a volume of 40 mL medium in 100 mL glass bottles under continuous stirring. The cells are primed with 100 IU/mL α-interferon for 1.5 hours at 37° C. before addition of 30 mL/L Sendai virus. After 1.5 hours the incubation temperature is decreased to 30° C. and the organic solvents are added to the incubation medium. The solvent used are acetone, DMSO (final concentration: 5 mL/L), 2-butanone, NN-dimethylacetamide, NMP, tetramethylene sulfoxide (2.5 mL/L), TMU (1.5 mL/L), 2-pyrrolidinone (1.25 mL/L), 4-metyl-2-pentanone, 1,3-dimetyl-2-imidazolidinone and N-ethyl-2-pyrrolidinone (0.6 mL/L). The incubation is then allowed to proceed overnight. The cells are removed by a centrifugation step and the supernatants are analysed by an ELISA to quantify α-interferon.
Example 1 is repeated with the same incubation conditions but with addition of 2-ABMP in combination with DMSO. The enhancing agents are added both to Sendai virus induced leukocytes and to non induced leukocytes and the effect on the α-interferon production is compared. The 2-ABMP is added at a concentration of 50 μg/ml and the amount of DMSO added is 5 mL/L.

[2] = test system: Sendai virus induced human leukocytes; test: α-interferon production in Sendai virus induced human leukocytes, ELISA of supernatant; assay type: cell-based; conditions: for effect on production of α-interferon (in words): virus induced primary leukocytes
Experimental: The human leukocytes used according to the invention are prepared from buffy coats by an initial centrifugation to fractionate the components, followed by sequential removal of the plasma layer and of the leukocyte fraction by suction. Residual red blood cells contaminating the leukocyte fraction are lysed twice with 2-4 volumes of cold 0.83% ammonium chloride and each lysis step is followed by centrifugation to collect the cells. The final leukocyte fraction is resuspended in a basal medium, e.g. EMEM (Eagle's minimum essential medium) supplemented with polyethylene glycol-(PEG)-precipitated human plasma. PEG-precipitated plasma is prepared by adding PEG 6000 to a final concentration of 6% (w/w) to human plasma. After precipitation for 3-5 days in a cold room the supernatant is removed and stored frozen until used. The temperature of the incubation medium is set to 36-37° C. and continuous stirring is used. Human PEG-precipitated plasma is added to a concentration of 1-5% (v/v), preferably 4% (v/v). A low amount of α-interferon (normally 100 IU/ml) is added to the incubation medium as a priming step, but other concentrations, up to several thousands of units per ml can be used. Human leukocytes are then added to a concentration of about 3-15 million cells per mL, preferably 7-11 million cells per mL. The similar size of the enhancing effect observed using the different cell concentrations makes it probable that the effect can be seen also at cell concentrations outside this range. The priming step is normally allowed to proceed for 1-5 hours, preferably 1.5-2 hours. […] A decrease of the incubation temperature to 29° C. -32° C. is performed (Morser, J. And Shuttleworth, J. (1981) J. Gen. Virology 56, 163-174) after another 1 to 4 hours, preferable after 1 to 2 hours. The concentration range where the additives are effective in increasing the interferon production varies between the different compounds but for the least toxic solvents a positive effect can be seen in the range of 1 mM-0.3 M, preferably in the range of 3 mM-50 mM and most preferably within 5 mM-20 mM. For the more toxic solvents the suitable concentration lies within the more limited ranges. […] After these additions, the incubation is allowed to proceed overnight with continuous stirring. A centrifugation step is performed to remove the cells and the supernatants are analysed by an ELISA to quantify α-interferon. Human leukocytes prepared from buffy coats and used in concentrations between 8 and 11 million cells per mL are incubated in a basal media (either EMEM or a modified EMEM) supplemented with 1.5 g/L of tricine and 4% (v/v) PEG precipitated plasma. […] The cells are removed by a centrifugation step and the supernatants are analysed by an ELISA to quantify α-interferon. […]

Cc1nc(N)nc(O)c1Br [2-ABMP, 2-amino-5-bromo-6-methyl-4-pyrimidinol]
induction of α-interferon (in words) [1]: did not induce α-interferon
effect on production of α-interferon (in words) [2]: act as an enhancing agent

C[S+](C)[O-] [dimethylsulfoxide]
effect on production of α-interferon (in words) [2]: enhanced

CCCC(=O)[O-].[Na+] [sodium butyrate]
effect on yield of α-interferon (in words) ([2]; pre-treatment of primary leukocytes): decrease

Cn1c(=O)c2[nH]cnc2n(C)c1=O [theophylline]
effect on production of α-interferon (in words) [2]: enhanced
